Experimental findings from patent publication EP4722201A1, “3-PHENYLISOXAZOLINE-5-CARBOXAMIDE COMPOUND, AND PREPARATION METHOD THEREFOR, HERBICIDAL COMPOSITION THEREOF AND USE THEREOF” (Jiangsu Flag Chemical Industry Co., Ltd, priority 2023, dated 2024) are described below.

What all share (type): in vivo
Assay [1] has as its system Cyperus iria. Description: Indoor herbicide activity determination, post-emergence (stem and leaf spray at 2-4 leaf stage). The following applies: 504 h, determined 21 days later, read-out: Inhibition rate of fresh weight, Cyperus iria; for inhibition at 60 g/ha: 60 g a.i./ha; for inhibition at 30 g/ha: 30 g a.i./ha. Summed up:
(§1)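 Potted weeds in sandy nutrient soil (pH 6.1, 1% organic matter) were grown in a constant-temperature illuminated room to the 2-4 leaf stage, then given a stem-and-leaf spray. Plants went back to the culture room once the spray had dried in shade. At 21 days, fresh weight inhibition % was calculated relative to untreated control plants.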

Assay [2] has as its system Digitaria sanguinalis. The description is as above. The following applies: 504 h, determined 21 days later, read-out: Inhibition rate of fresh weight, Digitaria sanguinalis; for inhibition at 60 g/ha: 60 g a.i./ha; for inhibition at 30 g/ha: 30 g a.i./ha. In a few lines: as §1
Assay [3] concerns Eclipta prostrata. Described as above. The following applies: 504 h, determined 21 days later, read-out: Inhibition rate of fresh weight, Eclipta prostrata; for inhibition at 60 g/ha: 60 g a.i./ha; for inhibition at 30 g/ha: 30 g a.i./ha. In a few lines:
as §1

A further assay concerns Aegilops tauschii. Description: Indoor herbicide activity determination, Seed Treatment; pre-emergence (soil spray). The following applies: read-out: Herbicidal activities (inhibition rate) Aegilops tauschii; for inhibition at 120 g/ha: 120 g a.i./ha; for inhibition at 60 g/ha: 60 g a.i./ha. In a few lines:
(§2)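 Weed seeds sown in 7 cm pots of sandy nutrient soil (pH 6.1, 1% organic matter), kept 24 h in a constant-temperature lit room, then soil sprayed by traveling spray tower (flow 390 mL/min). Fresh-weight inhibition % versus untreated controls scored 21 days later.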

In the next assay the test system is Alopecurus japonicus. The assay is described as above. The following applies: Dosage 240 g a.i./ha. In a few lines:
as §2

For another assay, the system named is Alopecurus myosuroides. Described as above. The following applies: Dosage 240 g a.i./ha. In a few lines:
as §2

The subject of assay [4] is Cyperus iria. The assay is described as above. The following applies: read-out: Herbicidal activities (inhibition rate) Cyperus iria; for inhibition at 120 g/ha: 120 g a.i./ha; for inhibition at 60 g/ha: 60 g a.i./ha. In a few lines:
as §2

For assay [5], the system named is Digitaria sanguinalis. The description is as above. The following applies: read-out: Herbicidal activities (inhibition rate) Digitaria sanguinalis; for inhibition at 120 g/ha: 120 g a.i./ha; for inhibition at 60 g/ha: 60 g a.i./ha. In a few lines: as §2
The subject of assay [6] is Eclipta prostrata. Described as above. The following applies: read-out: Herbicidal activities (inhibition rate) Eclipta prostrata; for inhibition at 120 g/ha: 120 g a.i./ha; for inhibition at 60 g/ha: 60 g a.i./ha. Summed up:
as §2

The subject of a further assay is Eleusine indica. Described as above. The following applies: Dosage 240 g a.i./ha. In a few lines: as §2
Another assay relates to Leptochloa chinensis. The assay is described as above. The following applies: Dosage 240 g a.i./ha. Summed up: as §2
The test system of a further assay is Lolium multiflorum. The assay is described as above. The following applies: Dosage 240 g a.i./ha. In a few lines:
as §2

SMILES strings stand for the structures.

For the molecule `O=C(N[C@H]1C[C@@H](C(=O)O)C1)C1(C(F)(F)F)CC(c2cc(F)cc(F)c2)=NO1` (mixture of isomers) [I-206], the inhibition at 60 g/ha in the assay on Cyperus iria [1], in the assay on Digitaria sanguinalis [2] and with Eclipta prostrata [3] was 80 to 100% throughout. Moreover, the inhibition at 120 g/ha in the assay on Aegilops tauschii lay within 80 to 100%; in the assay on Cyperus iria [4], 80 to 100%; with Digitaria sanguinalis [5] it was 80 to 100%; in the assay with Eclipta prostrata [6], 60 to 80%. Besides, the “Herbicidal activities, Alopecurus japonicus (inhibition rate class)” value with Alopecurus japonicus is given as “A (A indicates that the inhibition rate was greater than or equal to 80% to 100%)”. For the same molecule, the “Herbicidal activities, Alopecurus myosuroides (inhibition rate class)” value in the assay with Alopecurus myosuroides was “A (A indicates that the inhibition rate was greater than or equal to 80% to 100%)”. Besides, the “Herbicidal activities, Eleusine indica (inhibition rate class)” value in the assay with Eleusine indica was “A (A indicates that the inhibition rate was greater than or equal to 80% to 100%)”. The “Herbicidal activities, Leptochloa chinensis (inhibition rate class)” value in the assay with Leptochloa chinensis is “A (A indicates that the inhibition rate was greater than or equal to 80% to 100%)”. Also, the “Herbicidal activities, Lolium multiflorum (inhibition rate class)” value in the assay with Lolium multiflorum is “A (A indicates that the inhibition rate was greater than or equal to 80% to 100%)”.

Turning to `COC(=O)[C@H]1C[C@@H](NC(=O)C2(C(F)(F)F)CC(c3cc(F)cc(F)c3)=NO2)C1` (mixture of isomers) [I-208], the inhibition at 60 g/ha with Cyperus iria [1], in the assay on Digitaria sanguinalis [2] and with Eclipta prostrata [3] was 80 to 100% in each case. Also, the inhibition at 120 g/ha in the assay on Aegilops tauschii, in the assay on Cyperus iria [4], in the assay on Digitaria sanguinalis [5] and in the assay with Eclipta prostrata [6] was 80 to 100% each time. Also, in the assay on Alopecurus japonicus, the “Herbicidal activities, Alopecurus japonicus (inhibition rate class)” value is “A (A indicates that the inhibition rate was greater than or equal to 80% to 100%)”. In addition, in the assay on Alopecurus myosuroides, the “Herbicidal activities, Alopecurus myosuroides (inhibition rate class)” value is given as “A (A indicates that the inhibition rate was greater than or equal to 80% to 100%)”. The “Herbicidal activities, Eleusine indica (inhibition rate class)” value with Eleusine indica is on record as “A (A indicates that the inhibition rate was greater than or equal to 80% to 100%)”. The “Herbicidal activities, Leptochloa chinensis (inhibition rate class)” value in the assay on Leptochloa chinensis is reported as “A (A indicates that the inhibition rate was greater than or equal to 80% to 100%)”. Besides, in the assay on Lolium multiflorum, the “Herbicidal activities, Lolium multiflorum (inhibition rate class)” value is listed as “A (A indicates that the inhibition rate was greater than or equal to 80% to 100%)”.

In the case of `O=C(O)[C@@H]1CC[C@H](NC(=O)[C@@]2(C(F)(F)F)CC(c3cc(F)cc(F)c3)=NO2)C1` [CK5, reference compound], the inhibition at 30 g/ha in the assay on Cyperus iria [1] is 40 to 60%; in the assay with Digitaria sanguinalis [2] it was 40 to 60%; in the assay on Eclipta prostrata [3], below 20%. Further, the inhibition at 60 g/ha lay in the range of 20 to 40% with Aegilops tauschii, 60 to 80% in the assay on Cyperus iria [4], 60 to 80% with Digitaria sanguinalis [5] and 40 to 60% in the assay with Eclipta prostrata [6].

Take `O=C(O)[C@H]1CC[C@@H](NC(=O)[C@@]2(C(F)(F)F)CC(c3cc(F)cc(F)c3)=NO2)C1` [CK6, reference compound]: the inhibition at 30 g/ha with Cyperus iria [1] is 20 to 40%; in the assay on Digitaria sanguinalis [2] it was 20 to 40%; with Eclipta prostrata [3] it was below 20%. For the same molecule, the inhibition at 60 g/ha is below 20% in the assay on Aegilops tauschii, 40 to 60% in the assay on Cyperus iria [4], below 20% in the assay with Digitaria sanguinalis [5] and below 20% in the assay with Eclipta prostrata [6].

Regarding `C=C[C@]1(C(=O)N[C@H]2CO[C@@H](C(=O)O)C2)CC(c2cc(F)cc(F)c2)=NO1` [icafolin, reference compound], the inhibition at 30 g/ha in the assay with Cyperus iria [1] was 40 to 60%; in the assay with Digitaria sanguinalis [2] it was 40 to 60%; with Eclipta prostrata [3], below 20%. For the same molecule, the inhibition at 60 g/ha with Aegilops tauschii is 40 to 60%; with Cyperus iria [4] it was 20 to 40%; in the assay with Digitaria sanguinalis [5], 20 to 40%; in the assay with Eclipta prostrata [6] it was below 20%.

On to `C=CC1(C(=O)NC2COC(C(=O)OC)C2)CC(c2cc(F)cc(F)c2)=NO1` (stereo not shown) [icafolin-methyl, reference compound], for which the inhibition at 30 g/ha with Cyperus iria [1], with Digitaria sanguinalis [2] and in the assay with Eclipta prostrata [3] was 40 to 60% in each case. Moreover, the inhibition at 60 g/ha fell in the range of 40 to 60% with Aegilops tauschii, 20 to 40% with Cyperus iria [4], 20 to 40% with Digitaria sanguinalis [5] and 40 to 60% in the assay on Eclipta prostrata [6].

One may read the inhibition as the change of the read-out against control, counted positive when it falls.
